Assay results taken from PMC5342483, “Nucleoside 5′-O-monophosphorothioates as modulators of the P2Y14 receptor and mast cell degranulation” (Oncotarget, 2016).

Assays:
Assay type in all cases: cell-based
P2Y14 receptor [1] = molecular target: T1, P2Y14 receptor (Homo sapiens, UniProt Q15391); assay: Agonist calcium mobilization assay (Fluo-8) in HEK293T Gαqi5 cells stably expressing human P2Y14R; conditions: HEK-293T; read-out: CONCENTRATION / 100 μM
T1 construct: gene P2RY14
T1 sequence (Q15391 1-338): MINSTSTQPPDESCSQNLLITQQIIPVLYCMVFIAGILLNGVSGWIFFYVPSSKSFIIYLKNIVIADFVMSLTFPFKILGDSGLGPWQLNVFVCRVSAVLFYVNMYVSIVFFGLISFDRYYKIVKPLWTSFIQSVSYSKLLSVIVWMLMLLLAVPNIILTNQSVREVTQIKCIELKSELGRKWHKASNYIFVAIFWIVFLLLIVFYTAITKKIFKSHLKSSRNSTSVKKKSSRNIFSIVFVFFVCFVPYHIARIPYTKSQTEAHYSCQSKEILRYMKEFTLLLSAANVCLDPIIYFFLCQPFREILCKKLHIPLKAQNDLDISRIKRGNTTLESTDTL

P2Y14 receptor [2] = molecular target: T1, P2Y14 receptor; assay: as above; conditions: HEK-293T; read-out: CONCENTRATION / 1 μM
P2Y14 receptor [3] = molecular target: T1, P2Y14 receptor; assay: Antagonist calcium mobilization assay (Fluo-8) in HEK293T Gαqi5 cells stably expressing human P2Y14R; residual response to UDPG (EC80)[…] at […], […] at […]; conditions: HEK-293T; read-out: CONCENTRATION / 1000 μM

## Nc1ncnc2c1ncn2[C@@H]1O[C@H](COP(O)(O)=S)[C@@H](O)[C@H]1O [AMPS, adenosine 5'-O-monophosphorothioate]
P2Y14 receptor [1]
  activation at 100 µM: 84.4 ± 17.6%

## O=c1ccn([C@@H]2O[C@H](COP(O)(O)=S)[C@@H](O)[C@H]2O)c(=O)[nH]1 [UMPS, uridine 5'-O-monophosphorothioate]
P2Y14 receptor [2]
  activation at 1 µM: 84.5 ± 5.34%

## Cc1cn([C@H]2C[C@H](O)[C@@H](COP(O)(O)=S)O2)c(=O)[nH]c1=O [TMPS, thymidine 5'-O-monophosphorothioate]
P2Y14 receptor [3]
  activity at 1000 µM: 17.3 ± 52.9%

## Nc1ccn([C@@H]2O[C@H](COP(O)(O)=S)[C@@H](O)[C@H]2O)c(=O)n1 [CMPS, cytidine 5'-O-monophosphorothioate]
P2Y14 receptor [1]
  activation at 100 µM: 77.5 ± 4.4%
